Data published in ChEMBL document CHEMBL3421542, “Pure Diastereomers of a Tranylcypromine-Based LSD1 Inhibitor: Enzyme Selectivity and In-Cell Studies” (ACS Med Chem Lett, 2015).

What was measured:
[1] = biological target: T1, MAO-B (amine oxidase [flavin-containing] B) (Homo sapiens, UniProt P27338); assay: Inhibition of human recombinant MAOB expressed in Pichia pastoris at 100 uM incubated for 15 mins prior to substrate addition measured after 30 mins by luminescence assay
T1 sequence (P27338 whole entry): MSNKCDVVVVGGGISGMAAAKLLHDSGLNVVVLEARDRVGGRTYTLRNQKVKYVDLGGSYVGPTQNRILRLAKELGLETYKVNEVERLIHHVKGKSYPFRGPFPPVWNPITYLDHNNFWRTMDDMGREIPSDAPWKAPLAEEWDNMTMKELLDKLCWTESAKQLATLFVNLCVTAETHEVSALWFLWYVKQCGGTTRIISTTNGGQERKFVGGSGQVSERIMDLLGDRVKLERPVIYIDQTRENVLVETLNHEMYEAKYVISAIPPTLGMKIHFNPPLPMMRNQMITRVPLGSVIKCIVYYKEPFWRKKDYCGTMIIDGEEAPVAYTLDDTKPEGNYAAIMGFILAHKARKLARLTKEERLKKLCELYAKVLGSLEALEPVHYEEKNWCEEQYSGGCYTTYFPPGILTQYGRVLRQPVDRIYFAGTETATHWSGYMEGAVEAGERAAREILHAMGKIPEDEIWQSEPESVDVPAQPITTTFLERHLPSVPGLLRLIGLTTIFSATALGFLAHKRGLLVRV

[2] = Induction of cell differentiation in human NB4 cells assessed as upregulation of CD11B expression; assay type: functional, cell-based; conditions: NB-4
[3] = Inhibition of colony formation in mouse acute promyelocytic leukemic cell at 0.25 uM after 7 days by colony forming unit assay; assay type: functional; conditions: 168 h
[4] = Induction of cell differentiation in mouse acute promyelocytic leukemic cells; assay type: functional
[5] = biological target: T2, Amine oxidase [flavin-containing] B (Homo sapiens, UniProt P27338); assay: Inhibition of human recombinant MAOB expressed in Pichia pastoris incubated for 15 mins prior to substrate addition measured after 30 mins by luminescence assay
T2 sequence (P27338 whole entry): T1 sequence (P27338 whole entry)

Cl.NC1CC1c1ccc(NC(=O)C(Cc2ccccc2)NC(=O)OCc2ccccc2)cc1 (mixture of isomers)
inhibition at 0.5 h, 100 µM [1]: 40% | Activity [2]: 77.9% | inhibition at 0.25 µM [3]: 36.8% | Activity [4]: 77.9%

N[C@@H]1C[C@H]1c1ccc(NC(=O)[C@H](Cc2ccccc2)NC(=O)OCc2ccccc2)cc1
IC50 [5]: 32 µM | inhibition at 0.25 µM [3]: 59.2%

N[C@@H]1C[C@H]1c1ccc(NC(=O)[C@@H](Cc2ccccc2)NC(=O)OCc2ccccc2)cc1
inhibition at 0.5 h, 100 µM [1]: 33% | inhibition at 0.25 µM [3]: 59.6%

N[C@H]1C[C@@H]1c1ccc(NC(=O)[C@@H](Cc2ccccc2)NC(=O)OCc2ccccc2)cc1
inhibition at 0.5 h, 100 µM [1]: 14%

N[C@H]1C[C@@H]1c1ccc(NC(=O)[C@H](Cc2ccccc2)NC(=O)OCc2ccccc2)cc1
IC50 [5]: 42.6 µM
